Assay results: patent US9067871B2, “Aminotetraline derivatives, pharmaceutical compositions containing them, and their use in therapy” (ABBVIE DEUTSCHLAND GMBH & CO KG, priority 2009, dated 2015)
Structures can show the parent of a compound that is named as a salt.

biological target: human GlyT1c transporter (Homo sapiens (Human), UniProt P48067); assay: Radioligand binding assay using recombinant CHO cell membranes expressing human GlyT1; conditions: human GlyT1c-expressing CHO cell membranes; read-out: radioligand binding Kiapp
Sequence (P48067 whole entry): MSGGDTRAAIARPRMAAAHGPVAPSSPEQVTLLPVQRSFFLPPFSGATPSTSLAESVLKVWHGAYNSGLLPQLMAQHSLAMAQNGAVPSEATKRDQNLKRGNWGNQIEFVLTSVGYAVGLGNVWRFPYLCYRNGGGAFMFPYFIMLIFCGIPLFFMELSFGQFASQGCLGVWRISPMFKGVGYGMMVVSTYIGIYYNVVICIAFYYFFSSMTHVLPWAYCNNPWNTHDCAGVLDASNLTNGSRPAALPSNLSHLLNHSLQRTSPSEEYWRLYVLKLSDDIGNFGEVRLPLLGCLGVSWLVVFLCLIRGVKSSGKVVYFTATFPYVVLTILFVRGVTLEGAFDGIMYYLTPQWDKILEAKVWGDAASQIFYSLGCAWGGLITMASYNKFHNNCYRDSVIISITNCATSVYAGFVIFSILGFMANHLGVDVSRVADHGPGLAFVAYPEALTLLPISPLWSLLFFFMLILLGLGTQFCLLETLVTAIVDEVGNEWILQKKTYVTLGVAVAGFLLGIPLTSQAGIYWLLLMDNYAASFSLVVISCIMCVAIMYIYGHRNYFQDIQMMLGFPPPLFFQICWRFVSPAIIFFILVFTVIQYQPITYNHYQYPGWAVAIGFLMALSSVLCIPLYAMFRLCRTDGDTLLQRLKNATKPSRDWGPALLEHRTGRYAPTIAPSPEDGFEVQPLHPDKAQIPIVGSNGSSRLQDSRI
Text: 2. Radioligand binding assays using recombinant CHO cell membranes expressing human GlyT1: […]

SMILES	Ki [nM]
CCN(CC)C1CCc2ccc(CCCNS(=O)(=O)CC3CC3)cc2C1Cc1ccc(Cl)cc1 (stereo not drawn) [Example 274, N-{3-[8-(4-Chlorobenzyl)-7-(diethylamino)-5,6,7,8-tetrahydronaphthalen-2-yl]propyl}-1-cyclopropylmethanesulfonamide hydrochloride]	≤ 100
CCCS(=O)(=O)NCC#Cc1ccc2c(c1)C(Cc1ccccc1)C(NC(C)=O)CC2 (stereo not drawn) [Example 276, N-[1-Benzyl-7-{3-[(propylsulfonyl)amino]prop-1-yn-1-yl}-1,2,3,4-tetrahydronaphthalen-2-yl]acetamide]	≤ 10000
CCCS(=O)(=O)N1CC(c2ccc3c(c2)C(Cc2cccc(Cl)c2)C(N)CC3)C1 (stereo not drawn) [Example 283, 1-(3-Chloro-benzyl)-7-[1-(propane-1-sulfonyl)-azetidin-3-yl]-1,2,3,4-tetrahydro-naphthalen-2-ylamine hydrochloride]	≤ 1000
CCCS(=O)(=O)N1CC(c2ccc3c(c2)C(Cc2ccccc2)C(N)CC3)C1 (stereo not drawn) [Example 284, 1-Benzyl-7-[1-(propane-1-sulfonyl)-azetidin-3-yl]-1,2,3,4-tetrahydro-naphthalen-2-ylamine hydrochloride]	≤ 1000
CCCS(=O)(=O)N1CC(COc2ccc3c(c2)C(Cc2cccc(Cl)c2)C(N)CC3)C1 (stereo not drawn) [Example 286, 1-(3-Chloro-benzyl)-7-[1-(propane-1-sulfonyl)-azetidin-3-ylmethoxy]-1,2,3,4-tetrahydronaphthalen-2-ylamine hydrochloride]	≤ 10000
NC1CCc2ccc(OCCNS(=O)(=O)CC3CC3)cc2C1Cc1cccc(Cl)c1 (stereo not drawn) [Example 288, N-{2-[7-Amino-8-(3-chloro-benzyl)-5,6,7,8-tetrahydro-naphthalen-2-yloxy]-ethyl}-C-cyclopropyl-methanesulfonamide hydrochloride]	≤ 10
CN(CCOc1ccc2c(c1)C(Cc1cccc(Cl)c1)C(N)CC2)S(=O)(=O)CC1CC1 (stereo not drawn) [Example 291, N-{2-[7-Amino-8-(3-chloro-benzyl)-5,6,7,8-tetrahydro-naphthalen-2-yloxy]-ethyl}-C-cyclopropyl-N-methyl-methanesulfonamide]	≤ 10
CCCS(=O)(=O)NCCOc1ccc2c(c1)C(Cc1ccccc1Cl)C(N)CC2 (stereo not drawn) [Example 293, Propane-1-sulfonic acid {2-[7-amino-8-(2-chloro-benzyl)-5,6,7,8-tetrahydro-naphthalen-2-yloxy]-ethyl}-amide hydrochloride]	≤ 1000
NC1CCc2ccc(OCCNS(=O)(=O)C3CC3)cc2C1Cc1ccccc1Cl (stereo not drawn) [Example 294, Cyclopropanesulfonic acid {2-[7-amino-8-(2-chloro-benzyl)-5,6,7,8-tetrahydro-naphthalen-2-yloxyl]-ethyl}-amide hydrochloride]	≤ 10000
NC1CCc2ccc(OCCNS(=O)(=O)CC3CC3)cc2C1Cc1ccccc1Cl (stereo not drawn) [Example 295, N-{2-[7-Amino-8-(2-chloro-benzyl)-5,6,7,8-tetrahydro-naphthalen-2-yloxy]-ethyl}-C-cyclopropyl-methanesulfonamide hydrochloride]	≤ 1000
NC1CCc2ccc(CCCNS(=O)(=O)CC3CC3)cc2C1Cc1cccc(Cl)c1 (stereo not drawn) [Example 296, N-{3-[7-Amino-8-(3-chloro-benzyl)-5,6,7,8-tetrahydro-naphthalen-2-yl]-propyl}-C-cyclopropyl-methanesulfonamide hydrochloride]	≤ 100
CCCS(=O)(=O)NCCCc1ccc2c(c1)C(Cc1cccc(Cl)c1)C(N)CC2 (stereo not drawn) [Example 297, Propane-1-sulfonic acid {3-[7-amino-8-(3-chloro-benzyl)-5,6,7,8-tetrahydro-naphthalen-2-yl]-propyl}-amide hydrochloride]	≤ 100
CCOC(=O)NC1CCc2ccc(OCCNS(=O)(=O)c3cn(C)cn3)cc2C1Cc1ccccc1Cl (stereo not drawn) [Example 298, {1-(2-Chloro-benzyl)-7-[2-(1-methyl-1H-imidazole-4-sulfonylamino)-ethoxy]-1,2,3,4-tetrahydro-naphthalen-2-yl}-carbamic acid ethyl ester]	≤ 10000

The remaining lines, values ahead:

Ki [nM]	SMILES
≤ 100	CCCS(=O)(=O)N(C)Cc1ccc2c(c1)C(Cc1ccccc1)C(NC)CC2 (stereo not drawn) [Example 275, N-{[8-Benzyl-7-(methylamino)-5,6,7,8-tetrahydronaphthalen-2-yl]methyl}-N-methylpropane-1-sulfonamide trifluoroacetate]
≤ 10000	CCCS(=O)(=O)N(CCOc1ccc2c(c1)C(Cc1ccccc1)C(NC(=O)OCC)CC2)C1CC1 (stereo not drawn) [Example 280]
≤ 100	CCCS(=O)(=O)N(CCOc1ccc2c(c1)C(Cc1cccc(Cl)c1)C(N)CC2)C1CC1 (stereo not drawn) [Example 281, Propane-1-sulfonic acid {2-[7-amino-8-(3-chloro-benzyl)-5,6,7,8-tetrahydro-naphthalen-2-yloxy]-ethyl}-cyclopropyl-amide hydrochloride]
≤ 100	CCCS(=O)(=O)N(CCOc1ccc2c(c1)C(Cc1ccccc1)C(N)CC2)C1CC1 (stereo not drawn) [Example 282, Propane-1-sulfonic acid [2-(7-amino-8-benzyl-5,6,7,8-tetrahydro-naphthalen-2-yloxy)ethyl]-cyclopropyl-amide hydrochloride]
≤ 10000	CCCS(=O)(=O)N1CC(COc2ccc3c(c2)C(Cc2cccc(Cl)c2)C(NC(=O)OCC)CC3)C1 (stereo not drawn) [Example 285, {1-(3-Chloro-benzyl)-7-[1-(propane-1-sulfonyl)-azetidin-3-ylmethoxy]-1,2,3,4-tetrahydronaphthalen-2-yl}-carbamic acid ethyl ester]
≤ 10000	CCOC(=O)NC1CCc2ccc(OCCNS(=O)(=O)CC3CC3)cc2C1Cc1cccc(Cl)c1 (stereo not drawn) [Example 287, [1-(3-Chloro-benzyl)-7-(2-cyclopropylmethanesulfonylamino-ethoxy)-1,2,3,4-tetrahydronaphthalen-2-yl]-carbamic acid ethyl ester]
> 10000	CCOC(=O)NC1CCc2ccc(OCC3CN(S(=O)(=O)CC4CC4)C3)cc2C1Cc1cccc(Cl)c1 (stereo not drawn) [Example 289, [1-(3-Chloro-benzyl)-7-(1-cyclopropylmethanesulfonyl-azetidin-3-ylmethoxy)-1,2,3,4-tetrahydro-naphthalen-2-yl]-carbamic acid ethyl ester]
≤ 10000	CCOC(=O)NC1CCc2ccc(OCCN(C)S(=O)(=O)CC3CC3)cc2C1Cc1cccc(Cl)c1 (stereo not drawn) [Example 290, {1-(3-Chloro-benzyl)-7-[2-(cyclopropylmethanesulfonyl-methyl-amino)-ethoxy]-1,2,3,4-tetrahydro-naphthalen-2-yl}-carbamic acid ethyl ester]
≤ 1000	CCCS(=O)(=O)N1CC(COc2ccc3c(c2)C(Cc2ccccc2)C(N)CC3)C1 (stereo not drawn) [Example 292, 1-Benzyl-7-[1-(propane-1-sulfonyl)-azetidin-3-ylmethoxy]-1,2,3,4-tetrahydro-naphthalen-2-ylamine hydrochloride]
> 10000	CCOC(=O)NC1CCc2ccc(OCCNS(=O)(=O)c3cnn(C)c3)cc2C1Cc1ccccc1Cl (stereo not drawn) [Example 299, {1-(2-Chloro-benzyl)-7-[2-(1-methyl-1H-pyrazole-4-sulfonylamino)-ethoxy]-1,2,3,4-tetrahydro-naphthalen-2-yl}-carbamic acid ethyl ester]

same assay, conditions: read-out: radioligand binding Kiapp

SMILES	Ki [nM]
CCCS(=O)(=O)N(CCOc1ccc2c(c1)C(Cc1cccc(Cl)c1)C(NC(=O)OCC)CC2)C1CC1 (stereo not drawn) [Example 279]	≤ 10000
